Laboratory results as given in PMC8004798, “Identification of Bioactive Compounds from Marine Natural Products and Exploration of Structure-Activity Relationships (SAR)” (Antibiotics, 2021).
Converted amounts (≈) assume the structure as drawn. Where two headings read alike, the source gives them in different places.

What was measured:
[1] = tested on: human embryonic kidney cells 293 (HEK293); test: Resazurin cytotoxicity assay, HEK 293
From the text: (§1) To identify marine samples with activity against MRSA, 1434 compounds from the AIMS Bioresources Library (provided by the Queensland Compound Library, Brisbane, Australia, now called Compounds Australia) were screened in a resazurin cell viability assay.
(§2) Toxicity of AIMS Extract Library. Human alveolar epithelial cells (A549), Madin-Darby canine kidney epithelial cells (MDCK), human leukaemia cells (THP-1), human hepatocellular carcinoma cells (Hep-G2) and human embryonic kidney cells 293 (HEK293) were grown and differentiated in complete RPMI (Roswell Park Memorial Institute Medium) and DMEM (Dulbecco’s Modified Eagle’s medium) tissue culture media (RPMIc and DMEMc, from the Thermo Fisher Scientific, Waltham, MA, USA) by adding 10% FBS, 200 µM L-glutamine and 1 mM HEPES buffer solution. To determine toxicity of the AIMS extract library, 2 × 10^5 of each cell type were added to a 96-well plate and left for 48 h in a humidified 5% CO2 incubator at 37 °C to adhere. Extract samples at a final concentration of 0.5 mg mL^−1 were added to the wells, then the plates incubated for 4 more days in a humidified 5% CO2 incubator at 37 °C. Then, resazurin (10 μL of 0.05% w/v) was added and after 4 h, fluorescence measured as described previously. The cell viability was calculated as percentage fluorescence relative to untreated cells.

[2] = tested on: human leukaemia cells (THP-1); test: Resazurin cytotoxicity assay, THP-1
From the text: as §1
as §2, with “Extract samples at a final concentration of 0.5 mg mL^−1 were added to the wells, then the plates incubated for 4 more days in a humidified 5% CO2 incubator at 37 °C.” left out

M. tuberculosis H37Rv = test: Resazurin bacterial inhibition assay (MIC), M. tuberculosis; format: cell-based; conditions: Mycobacterium tuberculosis, 168 h, commercial compounds, 7 days, read-out: Minimum Inhibitory Concentration M. tuberculosis H37Rv
E. coli EC958 = test: Resazurin bacterial inhibition assay (MIC), E. coli; format: cell-based; conditions: read-out: Minimum Inhibitory Concentration E. coli
[3] = tested on: human hepatocellular carcinoma cells (Hep-G2); test: Resazurin cytotoxicity assay, HepG2
From the text: as §1, §2

[4] = tested on: Human alveolar epithelial cells (A549); test: Resazurin cytotoxicity assay, A549
From the text: as §1, §2

P. aeruginosa PAO1 = test: Resazurin bacterial inhibition assay (MIC), P. aeruginosa; format: cell-based; conditions: Pseudomonas aeruginosa, read-out: Minimum Inhibitory Concentration P. aeruginosa
[5] = tested on: methicillin-resistant Staphylococcus aureus (MRSA); test: Resazurin bacterial inhibition assay (MIC), MRSA; format: cell-based; conditions: 18 h, read-out: Minimum Inhibitory Concentration MRSA
[6] = commercial compounds, unit from Table 8 head
[7] = Escherichia coli, EC958, commercial compounds, 18 h, resazurin
[8] = PAO1, commercial compounds, 18 h, resazurin
[9] = Staphylococcus aureus, MRSA, commercial compounds, resazurin
[10] = commercial compounds, unit from Table 8 head, listed as 1,10 phenanthroline

SMILES | Minimum Toxicity Concentration HEK 293 [1, 6] | Minimum Toxicity Concentration THP-1 [2, 6] | MIC (M. tuberculosis H37Rv) | MIC (E. coli EC958; [7]) | Minimum Toxicity Concentration HepG2 [3, 6] | Minimum Toxicity Concentration A549 [4, 6] | MIC (P. aeruginosa PAO1; [8]) | MIC [5, 9] | Minimum Toxicity Concentration HEK 293 ([1]; human, 4 days) | Minimum Toxicity Concentration THP-1 ([2]; human, 4 days) | Minimum Toxicity Concentration HepG2 ([3]; human, 4 days) | Minimum Toxicity Concentration A549 ([4]; human, 4 days) | MIC ([5]; commercial compounds, resazurin) | MIC (E. coli EC958; Escherichia coli, EC958, 18 h) | MIC (P. aeruginosa PAO1; PAO1, 18 h) | MIC ([5]; Staphylococcus aureus, MRSA) | Minimum Toxicity Concentration HEK 293 [1, 10] | Minimum Toxicity Concentration THP-1 [2, 10] | Minimum Toxicity Concentration A549 [4, 10] | MIC (E. coli EC958; commercial compounds, 18 h, resazurin)
Cc1c(C)c2cccnc2c2ncccc12 [5,6-Dimethyl-1,10-phenanthroline] | 0.1 µM | 0.1 µM | 0.1 µM (≈ 0.0208 µg/mL) | 0.78 µM (≈ 0.162 µg/mL) | 0.1 µM | 0.1 µM | > 100 µM | 0.3 µM (≈ 0.0625 µg/mL) |  |  |  |  |  |  |  |  |  |  |  | 
c1ccc(-c2ccccn2)nc1 [2,2′-Bipyridine] | 3 µM | 50 µM | 0.1 µM (≈ 0.0156 µg/mL) | > 100 µM | 3 µM | >100 µM | > 100 µM | > 100 µM |  |  |  |  |  |  |  |  |  |  |  | 
CCCCCCCCNCCCCCCCC [Dioctylamine] | >100 µM | >100 µM | > 100 µM | 6.2 µM (≈ 1.5 µg/mL) | >100 µM | >100 µM | 3 µM (≈ 0.724 µg/mL) | 6.2 µM (≈ 1.5 µg/mL) |  |  |  |  |  |  |  |  |  |  |  | 
O=C1C(=O)c2cccnc2-c2ncccc21 [1,10-Phenanthroline-5,6-dione] |  |  | 0.1 µM (≈ 0.021 µg/mL) | 0.04 µM (≈ 0.00841 µg/mL) |  |  | 0.04 µM (≈ 0.00841 µg/mL) | 0.04 µM (≈ 0.00841 µg/mL) | 0.1 µM | 0.1 µM | 0.1 µM | 0.1 µM | 0.04 µM (≈ 0.00841 µg/mL) |  |  |  |  |  |  | 
c1cnc2ccc3ncccc3c2c1 [4,7-phenanthroline] | >100 µM | >100 µM | 2.5 µM (≈ 0.451 µg/mL) | 1.5 µM (≈ 0.27 µg/mL) | >100 µM | >100 µM | 2.5 µM (≈ 0.451 µg/mL) | 1.5 µM (≈ 0.27 µg/mL) |  |  |  |  |  |  |  |  |  |  |  | 
c1ccc(CN(Cc2ccccc2)Cc2ccccc2)cc1 [Tribenzylamine] | >100 µM | >100 µM | > 100 µM | > 100 µM | >100 µM | >100 µM | 6.5 µM (≈ 1.87 µg/mL) | > 100 µM |  |  |  |  |  |  |  |  |  |  |  | 
CCCCN(CCCC)CCCC [Tributylamine] | >100 µM | >100 µM | > 100 µM |  | >100 µM | >100 µM |  |  |  |  |  |  |  | > 100 µM | 50 µM (≈ 9.27 µg/mL) | > 100 µM |  |  |  | 
CCCCCCCCN(CCCCCCCC)CCCCCCCC [Trioctylamine] | 6 µM | 3.1 µM | 0.02 µM (≈ 0.00707 µg/mL) | 25 µM (≈ 8.84 µg/mL) | >100 µM | 50 µM | 25 µM (≈ 8.84 µg/mL) | 12.5 µM (≈ 4.42 µg/mL) |  |  |  |  |  |  |  |  |  |  |  | 
c1cnc2c(c1)ccc1cccnc12 [1,10-phenanthroline] | 50 µM | 0.1 µM | 0.1 µM (≈ 0.018 µg/mL) | 50 µM (≈ 9.01 µg/mL) | 0.1 µM | 3 µM | 0.3 µM (≈ 0.0541 µg/mL) | > 100 µM |  |  |  |  |  |  |  |  | 0.1 µM | 3 µM | 50 µM | 
Cc1cc(-c2ccccc2)c2ccc3c(-c4ccccc4)cc(C)nc3c2n1 [2,9-Dimethyl-4,7-diphenyl-1,10-phenanthroline] |  |  | 50 µM (≈ 18 µg/mL) | 0.78 µM (≈ 0.281 µg/mL) |  |  | 50 µM (≈ 18 µg/mL) | 25 µM (≈ 9.01 µg/mL) | 0.1 µM | >100 µM | 0.1 µM | >100 µM |  |  |  |  |  |  |  | 
C1CCC(NC2CCCCC2)CC1 [Dicyclohexylamine] | >100 µM | >100 µM | > 100 µM | > 100 µM | >100 µM | >100 µM | 12.5 µM (≈ 2.27 µg/mL) | > 100 µM |  |  |  |  |  |  |  |  |  |  |  | 
c1ccc(-c2ccnc3c2ccc2c(-c4ccccc4)ccnc23)cc1 [Bathophenanthroline] |  |  | 0.01 µM (≈ 0.00332 µg/mL) | 0.019 µM (≈ 0.00632 µg/mL) |  |  | 0.03 µM (≈ 0.00997 µg/mL) | 0.09 µM (≈ 0.0299 µg/mL) | 25 µM | 13 µM | 1.5 µM | 3 µM |  |  |  |  |  |  |  | 0.019 µM (≈ 0.00632 µg/mL)
c1cnc2c(c1)ccc1ncccc12 [1,7-phenanthroline] | >100 µM | >100 µM | > 100 µM | 25 µM (≈ 4.51 µg/mL) | >100 µM | >100 µM | 2.5 µM (≈ 0.451 µg/mL) | 25 µM (≈ 4.51 µg/mL) |  |  |  |  |  |  |  |  |  |  |  | 
O=[N+]([O-])c1cc2cccnc2c2ncccc12 [5-Nitro-1,10-phenanthroline] |  |  | 0.1 µM (≈ 0.0225 µg/mL) | 0.78 µM (≈ 0.176 µg/mL) |  |  | > 100 µM | 0.09 µM (≈ 0.0203 µg/mL) | 0.1 µM | 0.1 µM | 0.1 µM | 12 µM |  |  |  |  |  |  |  | 
c1ccc2cnccc2c1 [Isoquinoline] |  |  | 0.1 µM (≈ 0.0129 µg/mL) | > 100 µM |  |  | > 100 µM | > 100 µM |  |  | 3 µM |  |  |  |  |  |  |  |  | 
c1ccc2ncccc2c1 [Quinoline] |  |  | 0.1 µM (≈ 0.0129 µg/mL) | > 100 µM |  |  | > 100 µM | > 100 µM |  |  | 3 µM | 50 µM |  |  |  |  |  |  |  | 
